According to the supplement of paper PMC3493320:

Tested on: NCI-H295R
Test: IC50 (antiproliferative, ATP content)
Conditions: 48 h
In short: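 Adrenocortical carcinoma cells were plated at 1500 per well in 1536-well plates in serum-free DMEM with ITS supplement, left overnight, then given library compounds by pin transfer at 8 final concentrations spanning 0.6 nM to 46 µM and held 48 h at 37 °C, 5% CO2. ATP was measured as CellTiter-Glo luminescence after 20 min at room temperature and scaled between vehicle and positive-control wells. A four-parameter logistic model was fitted to each series. The IC50 was taken from these fits, and compounds without a concentration response were recorded as above the top dose.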

| SMILES | IC50 |
| --- | --- |
| CN1CCN(CCCN2c3ccccc3Sc3ccc(S(=O)(=O)N(C)C)cc32)CC1.CS(=O)(=O)O.CS(=O)(=O)O | > 46 µM |
| FC(F)OC(F)(F)C(F)Cl (stereo not given) | > 46 µM |
| CO/N=C(\C(=O)N[C@@H]1C(=O)N2C(C(=O)[O-])=C(C[n+]3cccc4c3CCC4)CS[C@H]12)c1csc(N)n1.O=S(=O)(O)O | > 46 µM |
| CCOC(=O)c1c(N)sc2c1CCN(Cc1ccccc1)C2.Cl | > 46 µM |
| O.O=C(/C=C/C(O)c1ccc(Cl)cc1)[O][Na] (stereo not given) | > 46 µM |
| Cc1cccc(C)c1NC(=O)CN1CCCC1 | > 46 µM |
| O=C([O-])[C@H](O)[C@@H](O)[C@H](O)[C@H](O)CO.[Na+] | > 46 µM |
| CC(C(=O)O)c1ccc(C(=O)c2cccs2)cc1 (stereo not given) | > 46 µM |
| BrC2=CC=C(C=C2)[C@@H]([C@@]1=CC=CC=N1)CCN(C)C.O=C(O)/C=C\C(O)=O | > 46 µM |
| O=C(O)CCC(=O)O.c1ccc(C2(c3ccccc3)CC2C2=NCCN2)cc1 (stereo not given) | > 46 µM |
| CN1[C@@H]2CC[C@H]1C[C@@H](OC(=O)C(CO)c1ccccc1)C2 (stereo not given in full) | > 46 µM |
| O=C(O)CP(=O)(O)O | > 46 µM |
| CCOC(C)=O | > 46 µM |
| COc1ccccc1OCC(O)CO (stereo not given) | > 46 µM |
| O=C(NNCS(=O)(=O)[O-])c1ccncc1.[Na+] | > 46 µM |
| CCOC(=O)c1cncn1C(C)c1ccccc1 (stereo not given) | > 46 µM |
| CCCCN(CCCC)CCCOC(=O)c1ccc(N)cc1 | > 46 µM |
| CC[C@H](C)C(=O)O[C@H]1CCC=C2C=C[C@H](C)[C@H](CC[C@@H]3C[C@@H](O)CC(=O)O3)[C@H]21 | > 46 µM |
| CC(=O)Nc1ncc([N+](=O)[O-])s1 | > 46 µM |
| CNCCc1ccccn1.CS(=O)(=O)O | > 46 µM |
| CCN(CC)CCOc1ccc2nc(N(C)C)sc2c1 | > 46 µM |
| CC(=O)Nc1ccc(OCC(O)CNC(C)C)cc1 (stereo not given) | > 46 µM |
| CCCc1nn(C)c2c(=O)[nH]c(-c3cc(S(=O)(=O)N4CCN(C)CC4)ccc3OCC)nc12.O=C(O)CC(O)(CC(=O)O)C(=O)O | > 46 µM |
| O=[C@](C)[C@@H]3[C@](CC2)(C)[C@](CC3)([H])[C@@]1([H])[C@@]2([H])[C@](CC[C@H](O)C4)(C)C4=CC1 | > 46 µM |
| COc1ccccc1O | > 46 µM |

| SMILES | IC50 |
| --- | --- |
| CC(=O)Oc1ccc(C2(c3ccc(OC(C)=O)cc3)C(=O)Nc3ccccc32)cc1 | > 46 µM |
| O=C(CCCN1CCC(O)(c2ccc(Cl)cc2)CC1)c1ccc(F)cc1 | > 46 µM |
| OCC(CO)N[C@H]1C[C@](O)(CO)[C@@H](O)[C@H](O)[C@H]1O | > 46 µM |
| O=[C@](OC)[C@@H]3[C@@]2([H])C[C@@](N4C[C@@]([H])2CC[C@@H]3O)([H])C1=C(CC4)C(C=CC=C5)=C5N1 | > 46 µM |
| CN1CCN(CCCN2c3ccccc3Sc3ccc(C(F)(F)F)cc32)CC1.Cl.Cl | > 46 µM |
| O=C(O)CCCc1ccc(N(CCCl)CCCl)cc1 | > 46 µM |
| COc1cc2c(cc1OC)[C@@H](Cc1cc(OC)c(OC)c(OC)c1)[N+](C)(CCCOC(=O)CC/C=C/CCC(=O)OCCC[N+]1(C)CCc3cc(OC)c(OC)cc3[C@H]1Cc1cc(OC)c(OC)c(OC)c1)CC2.[Cl-].[Cl-] (stereo not given in full) | > 46 µM |
| OCCOCCN1CCN(C2=Nc3ccccc3Sc3ccccc32)CC1 | > 46 µM |
| CC1CCC(NC(=O)N(CCCl)N=O)CC1 (stereo not given) | > 46 µM |
| NCCS(=O)(=O)O | > 46 µM |
| NS(=O)(=O)c1cc2c(cc1Cl)NCNS2(=O)=O | > 46 µM |
| O=C(O)CN1C(=O)c2cccc3cccc(c23)C1=O | > 46 µM |
| O=[C@](NC5=CC(C(F)(F)F)=CC=C5C(F)(F)F)[C@@H]4[C@@]3(C)CC[C@]2([H])[C@@]1(C)C=CC(N[C@@]([H])1CC[C@]([H])2[C@@]([H])3CC4)=O | > 46 µM |
| CCC(=O)O[C@@](Cc1ccccc1)(c1ccccc1)[C@@H](C)CN(C)C.O=S(=O)(O)c1ccc2ccccc2c1 | > 46 µM |
| CCN[C@H]1C[C@H](C)S(=O)(=O)c2sc(S(N)(=O)=O)cc21.Cl | > 46 µM |
| N#CC2=CC=C1[C@@](OCC1=C2)([C@]3=CC=C(C=C3)F)CCCN(C)C.OC(C(O)=O)=O | > 46 µM |
| CC[C@]12CCCN3CCc4c(n(c5ccccc45)[C@@](O)(C(=O)OC)C1)[C@@H]32 | > 46 µM |
| CC(C)(C)C(=O)Oc1ccc(S(=O)(=O)Nc2ccccc2C(=O)NCC(=O)[O-])cc1.O.O.O.O.[Na+] | > 46 µM |
| O=C1[C@]([C@](CC4)([H])[C@@]3([H])[C@@](C1)(C)[C@@](CC3)(O)[C@@](CO)=O)([H])[C@](C=C2)(C)C4=CC2=O | > 46 µM |
| C/C(=C\C(=O)OCCCCCCCCC(=O)O)C[C@@H]1OC[C@H](C[C@@H]2O[C@H]2[C@@H](C)[C@H](C)O)[C@@H](O)[C@H]1O | > 46 µM |
| CCn1cc(C(=O)O)c(=O)c2cc(F)c(N3CCNCC3)nc21 | > 46 µM |
| O=C(O)c1ccccc1OP(=O)(O)O | > 46 µM |
| C=CC(=O)O | > 46 µM |
| O=C1O[C@H]([C@@H](O)CO)C(O)=C1O | > 46 µM |
| CCCOc1ccccc1-c1nc2[nH]nnc2c(=O)[nH]1 | > 46 µM |
